Measured values: patent publication US12583858B2 (Genentech, Inc., priority 2015, dated 2026)

These compounds were tested against T1, TDO2 (Homo sapiens, UniProt P48775) (assay: TDO2 cell assay (NFK GreenScreen, SW48 cells)). Conditions: SW48 cells (high TDO expressing), 200 uM tryptophan, 24 hours; Table 3; read-out: TDO2 Cell Fluor EC50.
T1 construct: decreased levels of NFK in SW48 cells (high TDO expressing cells)
Format: cell-based

T1 sequence (P48775 whole entry): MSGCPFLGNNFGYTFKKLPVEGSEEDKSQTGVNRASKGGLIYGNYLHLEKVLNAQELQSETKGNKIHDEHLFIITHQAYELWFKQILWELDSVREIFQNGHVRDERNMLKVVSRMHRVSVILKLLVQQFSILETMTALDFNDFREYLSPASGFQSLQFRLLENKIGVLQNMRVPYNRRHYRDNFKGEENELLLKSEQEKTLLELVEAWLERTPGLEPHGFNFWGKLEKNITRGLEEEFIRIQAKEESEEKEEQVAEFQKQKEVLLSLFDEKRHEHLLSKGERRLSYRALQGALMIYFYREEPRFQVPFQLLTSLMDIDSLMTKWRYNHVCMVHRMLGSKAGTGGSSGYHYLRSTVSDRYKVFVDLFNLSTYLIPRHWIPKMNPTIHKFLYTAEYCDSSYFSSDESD

EC50	Compound
170 nM	N#Cc1ccc2c(c1)C(O)C(C1c3ccccc3-c3cncn31)CC2 (single isomer, unassigned) [Example 113f]
540 nM	Nc1ncc2c(n1)CCC(C1c3ccccc3-c3cncn31)C2O (single isomer, unassigned) [Example 111a]
240 nM	CS(=O)(=O)N1CCC(O)C(C2c3ccccc3-c3cncn32)CC1 (single isomer, unassigned) [Example 92d]
> 25000 nM	O[C@@H]1c2ccnn2CC[C@@H]1[C@@H]1c2ccccc2-c2cncn21 [Example 56c, (4S,5R)-5-((R)-5H-imidazo[5,1-a]isoindol-5-yl)-4,5,6,7-tetrahydropyrazolo[1,5-a]pyridin-4-ol]
15000 nM	CCS(=O)(=O)N1CCC2(CCC(C3c4ccccc4-c4cncn43)C2O)CC1 (single isomer, unassigned) [Example 76d]
200 nM	OC1c2ccccc2CC1C1c2ccccc2-c2cncn21 (single isomer, unassigned) [Example 19d]
19000 nM	O[C@H]1c2cnccc2CC[C@@H]1[C@@H]1c2ccccc2-c2cncn21 (single isomer, unassigned) [Example 04g]
220 nM	Nc1ccc2c(n1)CCC(C1c3ccccc3-c3cncn31)C2O (single isomer, unassigned) [Example 121c]
> 25000 nM	Nc1ccc2c(n1)CCC(C1c3ccccc3-c3cncn31)C2O (single isomer, unassigned) [Example 121b]
60 nM	OC1c2nonc2CCC1C1c2ccccc2-c2cncn21 (single isomer, unassigned) [Example 163b]
600 nM	O[C@H]1c2ccncc2CC[C@@H]1[C@@H]1c2ccccc2-c2cncn21 (single isomer, unassigned) [Example 08b]
2300 nM	OC1c2cncnc2CCC1C1c2ccccc2-c2cncn21 (single isomer, unassigned) [Example 94a]
7400 nM	OC1C(C2c3ccccc3-c3cncn32)CCC12CCOCC2 (single isomer, unassigned) [Example 68b]
> 25000 nM	CS(=O)(=O)N1CCC(O)C(C2c3ccc(F)cc3-c3cncn32)C1 (single isomer, unassigned) [Example 118a]
240 nM	N#Cc1cnn2c1C(O)C(C1c3ccccc3-c3cncn31)CC2 (single isomer, unassigned) [Example 156b]
23000 nM	NC(=O)c1ccc2c(c1)C(O)C(C1c3ccccc3-c3cncn31)CC2 (single isomer, unassigned) [Example 122c]
> 25000 nM	CC1(C)OCC(C2c3ccccc3-c3cncn32)C1O (single isomer, unassigned) [Example 85f]
> 25000 nM	O[C@@H]1c2nncn2CC[C@H]1[C@H]1c2ccccc2-c2cncn21 (single isomer, unassigned) [Example 146-1c]
130 nM	O[C@@H]1c2cnccc2CC[C@H]1[C@H]1c2ccccc2-c2cncn21 (single isomer, unassigned) [Example 04h]
> 25000 nM	Nc1cc2n(n1)CCC(C1c3ccccc3-c3cncn31)C2O (single isomer, unassigned) [Example 161g]

EC50	Compound
37 nM	CS(=O)(=O)c1ccc2c(c1)[C@@H](O)[C@H]([C@H]1c3ccccc3-c3cncn31)CC2 (single isomer, unassigned) [Example 142a]
320 nM	OC1CCC(F)(F)CC1C1c2ccccc2-c2cncn21 (single isomer, unassigned) [Example 18c, 4,4-difluoro-2-(5H-imidazo[5,1-a]isoindol-5-yl)cyclohexan-1-ol]
53 nM	OC1CC(CF)(CF)C1C1c2ccccc2-c2cncn21 (single isomer, unassigned) [Example 150e]
6840 nM	CC(C)(O)C1c2ccccc2-c2cncn21 (racemic) [Example 44, 2-(5H-imidazo[5,1-a]isoindol-5-yl)propan-2-ol]
> 25000 nM	OC1c2cnccc2CC1C1c2ccccc2-c2cncn21 (single isomer, unassigned) [Example 71c]
> 25000 nM	OC1COCCC1C1c2cccc(F)c2-c2cncn21 (single isomer, unassigned) [Example 99c]
> 25000 nM	Cc1cc2c(cn1)C(O)C(C1c3ccccc3-c3cncn31)C2 (single isomer, unassigned) [Example 59d]
480 nM	NC(=O)c1ccc2c(c1)CCC(C1c3ccccc3-c3cncn31)C2O (single isomer, unassigned) [Example 60a]
> 25000 nM	CCS(=O)(=O)N1CCC(O)C(C2c3ccccc3-c3cncn32)C1 (single isomer, unassigned) [Example 15a]
140 nM	CC(C)S(=O)(=O)N1CC[C@@H]([C@H]2c3ccccc3-c3cncn32)[C@H](O)C1 (single isomer, unassigned) [Example 80b]
> 25000 nM	CS(=O)(=O)c1ccc2c(c1)OCC(C1c3ccccc3-c3cncn31)C2O (single isomer, unassigned) [Example 91b]
18000 nM	N#CCN1CC[C@@H]([C@H]2c3ccccc3-c3cncn32)[C@H](O)C1 (single isomer, unassigned) [Example 27b]
> 25000 nM	CC(=O)N1CCC(C2c3ccccc3-c3cncn32)C(O)C1 (single isomer, unassigned) [Example 09a, 1-(3-hydroxy-4-(5H-imidazo[5,1-a]isoindol-5-yl)piperidin-1-yl)ethan-1-one]
> 25000 nM	O[C@@H]1c2c(F)cnn2CC[C@@H]1[C@@H]1c2ccccc2-c2cncn21 (single isomer, unassigned) [Example 151b]
> 25000 nM	N#CCN1CC[C@H]([C@H]2c3ccccc3-c3cncn32)[C@@H](O)C1 [Example 27c, 2-((3R,4R)-3-hydroxy-4-((S)-5H-imidazo[5,1-a]isoindol-5-yl)piperidin-1-yl)acetonitrile]
> 25000 nM	CCS(=O)(=O)N1CCC(O)C(C2c3ccccc3-c3cncn32)C1 (single isomer, unassigned) [Example 15b]
> 25000 nM	OC1CCOCC1C1c2c(F)cccc2-c2cncn21 (single isomer, unassigned) [Example 73d]
> 25000 nM	OC1CCCOCC1C1c2ccccc2-c2cncn21 (single isomer, unassigned) [Example 86e]
3900 nM	OC1C(C2c3ccc(F)cc3-c3cncn32)CC12CCOCC2 (single isomer, unassigned) [Example 109b]
200 nM	NC(=O)c1ccc2c(n1)CCC(C1c3ccccc3-c3cncn31)C2O (single isomer, unassigned) [Example 104b]

EC50	Compound
10000 nM	N#Cc1ccc2c(c1)CCC(C1c3ccccc3-c3cncn31)C2O (single isomer, unassigned) [Example 62a]
2100 nM	OC1(C2c3ccccc3-c3cncn32)CCCOC1 (single isomer, unassigned) [Example 144c]
> 25000 nM	O[C@@H]1[C@@H]([C@@H]2c3ccccc3-c3cncn32)CCCC1(F)F (single isomer, unassigned) [Example 106a]
300 nM	O[C@@H]1CC2(COC2)[C@H]1[C@@H]1c2ccccc2-c2cncn21 [Example 87b, (5S,6R)-5-((R)-5H-imidazo[5,1-a]isoindol-5-yl)-2-oxaspiro[3.3]heptan-6-ol]
2200 nM	OC1CCOCC1C1c2c(F)cccc2-c2cncn21 (single isomer, unassigned) [Example 73b]
98 nM	CS(=O)(=O)N1CCC2(CCC(C3c4ccccc4-c4cncn43)C2O)CC1 (single isomer, unassigned) [Example 180c]
> 25000 nM	CCS(=O)(=O)N1CCC(O)C(C2c3ccccc3-c3cncn32)C1 (single isomer, unassigned) [Example 15d]
120 nM	O[C@H]1c2cccnc2CC[C@H]1[C@H]1c2ccccc2-c2cncn21 [Example 31h, (5R,6S)-6-((S)-5H-imidazo[5,1-a]isoindol-5-yl)-5,6,7,8-tetrahydroquinolin-5-ol]
3000 nM	CC(=O)N1CCC(C2c3ccccc3-c3cncn32)C(O)C1 (single isomer, unassigned) [Example 09b, 1-(3-hydroxy-4-(5H-imidazo[5,1-a]isoindol-5-yl)piperidin-1-yl)ethan-1-one]
190 nM	CC1(C)COCC(C2c3ccccc3-c3cncn32)C1O (single isomer, unassigned) [Example 66b]
840 nM	Nc1ccc2c(n1)CCC(C1c3ccccc3-c3cncn31)C2O (single isomer, unassigned) [Example 121a]
60 nM	CC1(C)C[C@H](O)[C@@H]1[C@H]1c2ccccc2-c2cncn21 [Example 22a, (1S,2S)-2-((S)-5H-imidazo[5,1-a]isoindol-5-yl)-3,3-dimethylcyclobutan-1-ol]
> 25000 nM	CC(=O)N1CCC(C2c3ccccc3-c3cncn32)C(O)C1 (single isomer, unassigned) [Example 09c, 1-(3-hydroxy-4-(5H-imidazo[5,1-a]isoindol-5-yl)piperidin-1-yl)ethan-1-one]
22000 nM	CN(C)C(=O)c1ccc2c(c1)CCC(C1c3ccccc3-c3cncn31)C2O (single isomer, unassigned) [Example 98e]
180 nM	CN(C)C(=O)c1ccc2c(c1)CCC(C1c3ccccc3-c3cncn31)C2O (single isomer, unassigned) [Example 98c]
19000 nM	OC1c2ccccc2CCC1C1c2ccccc2-c2cncn21 (single isomer, unassigned) [Example 102b]
> 25000 nM	O[C@H]1COCC[C@@H]1[C@@H]1c2c(F)cccc2-c2cncn21 [Example 120b, (3R,4R)-4-((R)-6-fluoro-5H-imidazo[5,1-a]isoindol-5-yl)tetrahydro-2H-pyran-3-ol]
9500 nM	OC1C(C2c3ccc(F)cc3-c3cncn32)CC12CCOCC2 (single isomer, unassigned) [Example 109e]
4400 nM	NS(=O)(=O)N1CC(O)C(C2c3ccccc3-c3cncn32)C1 (single isomer, unassigned) [Example 28b]
72 nM	OC1c2ccccc2CCC1C1c2ccccc2-c2cncn21 (single isomer, unassigned) [Example 102a]
